Source: US9376376B2, “Substitute diphenylamine compounds use thereof as antitumor agents” (SINOCHEM CORPORATION, priority 2012, dated 2016)

Columns and labels:
Type in all cases: cell-based, human
leukemia HL-60 cells [1] = assay: In vitro cell inhibition assay, CCK-8 method, HL-60; conditions: HL-60 cells, CCK-8 method
Description: After the cell culture flasks gently shaking, culture fluid was discarded in clean bench. […] Cells were collected and transferred to centrifuge tube. For the non-adherent cells HL-60, CCRF-CEM and MOLT-4, cell flasks were picked up from incubator and then transferred to the centrifuge tubes directly. After cells were collected using centrifuge at 1000 rpm/min for 5 min, the fluid was discarded. Then cells were washed for one time by PBS, discard fluid. Then add some medium, count cells under inverted microscope using blood cell counting plate, according the counting number to making the density of adherent cell was 1×10^5 cells/mL, the non-adherent cell was 2×10^5 cells/mL (the volumes of HL-60, CCRF-CEM, MOLT-4 are smaller than non-adherent cells, these cells added to each well was much more higher). Add 50 μL aliquots to each well of 96-well plates (the density of adherent cells was 5000 cells/well, non-adherent cells was 10000 cells/well). Blank control, Negative control, blank control with compounds and positive control wells were grouped, and three replicate wells were used for each data point in the experiments. Then the cells were cultured in 5% incubator for overnight at 37° C., Then the different concentration compounds were added to each well. After incubation for 48 h, according to the manufacturer's instructions, CCK-8 reagent (10 μl) was added and incubation was continued for a further 2-4 h. The absorbance (A) of each well was read at 450 nm using a plate reader.

lung cancer A549 cell = assay: In vitro cell inhibition assay (MTT method), A549; conditions: 48 h incubation
Description: (§1) The human cancer cell lines used for this assay were lung cancer A549 and leukemia HL-60.
(§2) The A549 or HL-60 cells were picked up from cell incubator, after washed for twice using PBS, cells were digested by 0.25% trypsin, and then add medium to terminate the digestion. After cells were collected using centrifuge and re-suspended, count cells under inverted microscope and add medium to make a density was 5×10^4 cells/mL. After 100 μL aliquots were added to each well of 96-well microtiter plates, cells were cultured in 5% incubator for overnight at 37° C., then the different concentration compounds were added to each well. After incubation for 48 h, MTT solution was added to each well and plates were then incubated for 4 h. The MTT tetrazolium was reduced to formazan by living cells. Then the formazan crystals were dissolved though adding DMSO to each well. The absorbance was read at 570 nm with a microplate reader.

leukemia HL-60 cells [2] = assay: In vitro cell inhibition assay (MTT method), HL-60; conditions: 48 h
Description: as §1, §2

Structure (SMILES) | Proliferation inhibitory effect of the compounds on HL-60 cells (% of Control) (leukemia HL-60 cells [1]; concentration 0.01 μM) | Proliferation inhibitory effect of the compounds on HL-60 cells (% of Control) (leukemia HL-60 cells [1]; concentration 0.1 μM) | Proliferation inhibitory effect of the compounds on HL-60 cells (% of Control) (leukemia HL-60 cells [1]; concentration 1 μM) | Proliferation inhibitory effect of the compounds on HL-60 cells (% of Control) (leukemia HL-60 cells [1]; concentration 10 μM) | Proliferation inhibitory effect of the compounds on HL-60 cells (% of Control) (leukemia HL-60 cells [1]; concentration 100 μM) | Proliferation inhibitory effect of the compounds on A549 cell (% of Control) (lung cancer A549 cell; 0.01 μM) | Proliferation inhibitory effect of the compounds on A549 cell (% of Control) (lung cancer A549 cell; 0.1 μM) | Proliferation inhibitory effect of the compounds on A549 cell (% of Control) (lung cancer A549 cell; 1 μM) | Proliferation inhibitory effect of the compounds on A549 cell (% of Control) (lung cancer A549 cell; 10 μM) | Proliferation inhibitory effect of the compounds on A549 cell (% of Control) (lung cancer A549 cell; 100 μM) | Proliferation inhibitory effect of the compounds on HL-60 cells (% of Control) (leukemia HL-60 cells [2]; concentration 0.01 μM) | Proliferation inhibitory effect of the compounds on HL-60 cells (% of Control) (leukemia HL-60 cells [2]; concentration 0.1 μM) | Proliferation inhibitory effect of the compounds on HL-60 cells (% of Control) (leukemia HL-60 cells [2]; concentration 1 μM) | Proliferation inhibitory effect of the compounds on HL-60 cells (% of Control) (leukemia HL-60 cells [2]; concentration 10 μM) | Proliferation inhibitory effect of the compounds on HL-60 cells (% of Control) (leukemia HL-60 cells [2]; concentration 100 μM)
N#Cc1c(Cl)c(Cl)c(Nc2ccc(Br)cc2Cl)c(C#N)c1Cl [Compound 6-45] | 0.00 % of Control | 27.78 % of Control | 39.89 % of Control | 52.09 % of Control | 80.30 % of Control | – | – | – | – | – | – | – | – | – | –
Cc1cc([N+](=O)[O-])cc([N+](=O)[O-])c1Nc1c(Cl)cc(C#N)cc1Cl [Compound 30-104] | – | – | – | – | – | 2.4 % of Control | 1.1 % of Control | −0.1 % of Control | 78.4 % of Control | 91.8 % of Control | 21.8 % of Control | 31.6 % of Control | 65.3 % of Control | 88.0 % of Control | 93.3 % of Control
Cc1c(Cl)c([N+](=O)[O-])cc([N+](=O)[O-])c1Nc1c(F)cc(Cl)cc1F [Compound 22-93] | – | – | – | – | – | −2.2 % of Control | −1.8 % of Control | −0.2 % of Control | 73.7 % of Control | 91.4 % of Control | −3.6 % of Control | −7.1 % of Control | 6.8 % of Control | 70.4 % of Control | 95.4 % of Control
N#Cc1cc(Cl)c(Nc2c(Cl)c(Cl)c(C#N)c(Cl)c2C#N)c(Cl)c1 [Compound 6-98] | – | – | – | – | – | −2.5 % of Control | −0.7 % of Control | 11.7 % of Control | 90.1 % of Control | 93.2 % of Control | −2.5 % of Control | 10.1 % of Control | 30.0 % of Control | 91.7 % of Control | 95.1 % of Control
N#Cc1c(Cl)c(Cl)c(Nc2ccc(Cl)c(Cl)c2)c(C#N)c1Cl [Compound 6-43] | 23.65 % of Control | 31.60 % of Control | 38.45 % of Control | 73.80 % of Control | 78.53 % of Control | – | – | – | – | – | – | – | – | – | –
N#Cc1c(Cl)c(Cl)c(Nc2c(Br)cc([N+](=O)[O-])cc2Br)c(C#N)c1Cl [Compound 6-114] | – | – | – | – | – | 10.1 % of Control | 2.8 % of Control | 11.5 % of Control | 82.1 % of Control | 94.9 % of Control | −0.4 % of Control | 10.0 % of Control | 20.7 % of Control | 87.5 % of Control | 93.2 % of Control
Cc1c(Cl)c([N+](=O)[O-])cc([N+](=O)[O-])c1Nc1c(Cl)cc(C(F)(F)F)cc1Cl [Compound 22-101] | – | – | – | – | – | 13.7 % of Control | 21.4 % of Control | 19.1 % of Control | 66.4 % of Control | 97.5 % of Control | 8.3 % of Control | 5.5 % of Control | 48.6 % of Control | 73.4 % of Control | 64.7 % of Control
N#Cc1ccc(Nc2c(Cl)c(Cl)c(C#N)c(Cl)c2C#N)cc1 [Compound 6-23] | – | – | – | – | – | −0.8 % of Control | −1.8 % of Control | 2.5 % of Control | 93.7 % of Control | 93.8 % of Control | 2.3 % of Control | 10.8 % of Control | 23.1 % of Control | 93.2 % of Control | 90.6 % of Control
N#Cc1c(Cl)c(Cl)c(Nc2c(Cl)cccc2Cl)c(C#N)c1Cl [Compound 6-41] | – | – | – | – | – | 3.8 % of Control | 0.7 % of Control | 13.1 % of Control | 84.0 % of Control | 92.0 % of Control | 6.5 % of Control | 3.9 % of Control | 7.8 % of Control | 86.5 % of Control | 87.9 % of Control
N#Cc1c(Cl)c(Cl)c(Nc2ccc(Cl)cc2Cl)c(C#N)c1Cl [Compound 6-39] | – | – | – | – | – | 18.3 % of Control | 18.8 % of Control | 19.6 % of Control | 24.9 % of Control | 92.6 % of Control | 11.9 % of Control | 14.7 % of Control | 31.0 % of Control | 78.5 % of Control | 80.8 % of Control
Cc1cc([N+](=O)[O-])cc([N+](=O)[O-])c1Nc1c(Cl)cc(Cl)cc1C#N [Compound 30-120] | – | – | – | – | – | −1.5 % of Control | −0.9 % of Control | −0.7 % of Control | 84.0 % of Control | 92.0 % of Control | 23.6 % of Control | 39.2 % of Control | 70.6 % of Control | 95.9 % of Control | 95.7 % of Control
